The results in this text go back to patent EP4516912A1, “HERBICIDE RESISTANT PLANTS” (Eberhard-Karls-Universität Tübingen, priority 2023, dated 2025).

Entries after “also recorded” stand apart in the source; their conditions may differ.

Data set [1] addresses T1, mAtDHQS1 (Arabidopsis thaliana, UniProt Q8VYV7).
T1 construct: The mature i.e. biologically relevant enzyme (mAtDHQS1) with 381 amino acids; (His)6 (C); made in house; host or cells: E. coli
T1 sequence (Q8VYV7 59-442): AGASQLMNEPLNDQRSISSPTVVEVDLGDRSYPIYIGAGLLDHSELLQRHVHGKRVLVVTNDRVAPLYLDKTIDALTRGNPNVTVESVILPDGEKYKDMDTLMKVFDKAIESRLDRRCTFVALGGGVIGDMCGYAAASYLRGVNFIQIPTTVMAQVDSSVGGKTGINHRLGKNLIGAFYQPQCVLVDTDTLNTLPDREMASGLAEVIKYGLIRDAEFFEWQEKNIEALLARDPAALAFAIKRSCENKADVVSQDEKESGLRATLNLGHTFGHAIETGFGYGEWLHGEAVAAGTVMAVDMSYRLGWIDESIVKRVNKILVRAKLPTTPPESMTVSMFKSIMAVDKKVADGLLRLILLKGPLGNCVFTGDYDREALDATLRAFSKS
The experiment in a line: enzymatic assay with purified recombinant mature AtDHQS1. As to conditions: 100 to 1000 µM; 50 ng purified recombinant enzyme; Figure 1B. In kind it is biochemical. As for the experimental part:
(§1) (A) Schematic representation of mDHSQ1 and pDHQS1 both containing a C-terminal (His)6 tag for purification after heterologous expression of the recombinant proteins in E.coli. aa: amino acid. (B) Relative activity of mDHQS1 (left) and pDHQS1 (right) in the presence of the indicated concentrations of 7dSh. The activity in the absence of 7dSh was set to 1. […] (A) MST fluorescence spectrum of RED dye-labelled mAtDHQS1 (50 nM) in the absence of DAHP (blue line, marked as line 1) or in the presence of 500 µM DAHP (green line, marked as line 2). […] (B) MST fluorescence spectrum of RED dye-labelled mAtDHQS1 (50 nM) in the absence of 7dSh (blue line marked as line 1) or in the presence of 500 µM 7dSh (green line marked as line 2). […] (C) MST fluorescence spectrum of RED dye-labelled mAtDHQS1 (50 nM) in the absence of 7dSh and DAHP (blue line, marked as line 1), in the presence of 250 µM DAHP (green line marked as line 2) or 250 µM DAHP and 250 µM 7dSh (red line marked as line 3). […] (B) As in (A) but the root length was quantified. n = 10 different, lower case letters mean statistically significant differences between the data sets (ANOVA test). (C) Subcellular localization of EGFP-tagged AtDHQS1 (lines 1-1 and 1-2) or EGFP-tagged AtDHQS2 (lines 2-1 and 2-2) in chloroplasts (red fluorescence) of 3-days-old transgenic Arabidopsis plants. […]

In data set [2] the test system is Arabidopsis wild type seedlings or transgenic lines overexpressing AtDHQS1-GFP or AtDHQS2-GFP. The experiment in a line: comparative root growth experiments on growth medium. In kind it is in vivo, Arabidopsis thaliana. Particulars: 250 µM. On the procedure: (§2) (A) Schematic representation of mDHSQ1 and pDHQS1 both containing a C-terminal (His)6 tag for purification after heterologous expression of the recombinant proteins in E.coli. aa: amino acid. (B) Relative activity of mDHQS1 (left) and pDHQS1 (right) in the presence of the indicated concentrations of 7dSh. The activity in the absence of 7dSh was set to 1. […] (A) MST fluorescence spectrum of RED dye-labelled mAtDHQS1 (50 nM) in the absence of DAHP (blue line, marked as line 1) or in the presence of 500 µM DAHP (green line, marked as line 2). […] (B) MST fluorescence spectrum of RED dye-labelled mAtDHQS1 (50 nM) in the absence of 7dSh (blue line marked as line 1) or in the presence of 500 µM 7dSh (green line marked as line 2). No downward shift is detectable, showing that there is no binding. (C) MST fluorescence spectrum of RED dye-labelled mAtDHQS1 (50 nM) in the absence of 7dSh and DAHP (blue line, marked as line 1), in the presence of 250 µM DAHP (green line marked as line 2) or 250 µM DAHP and 250 µM 7dSh (red line marked as line 3). […] (A) Growth of 3-days-old wild type plants (Col-0) or two independent transgenic lines each ectopically overexpressing either EGFP-tagged AtDHQS1 (1-1, 1-2) or EGFP-tagged AtDHQS2 (2-1, 2-2) after 3 days on control plates (mock) or on plates containing 250 µM 7dSh. (B) As in (A) but the root length was quantified. n = 10 different, lower case letters mean statistically significant differences between the data sets (ANOVA test). (C) Subcellular localization of EGFP-tagged AtDHQS1 (lines 1-1 and 1-2) or EGFP-tagged AtDHQS2 (lines 2-1 and 2-2) in chloroplasts (red fluorescence) of 3-days-old transgenic Arabidopsis plants. […] (Left) relative AtDHQS1 transcript levels in the indicated transgenic Arabidopsis lines as determined by qRT-PCR using AtDHQS1 gene-specific primers. AtDHQS1 transcript levels are about ten times higher than in wild type (Col-0). (Right) relative AtDHQS2 transcript levels in the indicated transgenic Arabidopsis lines as determined by qRT-PCR using AtDHQS2 gene-specific primers. […]

In data set [3] the target is T1, mAtDHQS1. The experiment in a line: MicroScale Thermophoresis (MST) binding and competition. As for the experimental part:
as §2
In general terms: In MST a laser heats a spot of the sample, and binding alters the fluorescence response.

Data set [4] has as its target T2, pAtDHQS1 (Arabidopsis thaliana, UniProt Q8VYV7).
T2 construct: a version that still has the 61 amino acid long transit peptide for plastid import (pAtDHQS1); (His)6 (C); made in house; host or cells: E. coli
T2 sequence (Q8VYV7 59-442): T1 sequence (Q8VYV7 59-442)
Kind of data set: enzymatic assay with purified recombinant AtDHQS1 still containing the transit peptide. In kind it is biochemical. Particulars: 100 to 1000 µM; 50 ng purified recombinant enzyme; Figure 1B. As for the experimental part:
as §1

In data set [5] the test system is Arabidopsis thaliana, Brassica napus and Hordeum vulgare seedlings. Kind of data set: sedoheptulose accumulation in seedling extracts after exposure. In kind it is in vivo. Particulars: extracts after exposure of seedlings of the three species. The text has this:
The finding that AtDHQS1 is not the target of 7dSh, but that the overexpression of AtDHQS1 (-GFP) causes partial tolerance to 7dSh in Arabidopsis seems contradictory, and is in stark contrast to the findings of the prior art. Without being bound to theory, overexpression of AtDHQS1 could lead to a metabolic imbalance in the plant, and thereby could indirectly influence the amount, constitution, intracellular localization, biochemical and physiological activity of counteracting enzymes or proteins, one of which potentially being the true target for 7dSh. This hypothesis is in agreement with a recent finding that a strong accumulation of sedoheptulose was detectable in the extracts after exposure of Arabidopsis thaliana, Brassica napus and Hordeum vulgare seedlings to 7dSh. The accumulation was up to 60 times higher than in the untreated seedlings of the three species. Sedoheptulose is a ketoheptose - a monosaccharide with seven carbon atoms and a ketone functional group and one of the few heptoses found in nature. Sedoheptulose is not a metabolite of the shikimate pathway and can in no way serve as substrate for AtDHQS1.

Data set [6] has as its system thale cress (Arabidopsis thaliana), rapeseed/canola (Brassica napus), barley (Hordeum vulgare), maize (Zea mays), red-root amaranth (Amaranthus retroflexus) …. The experiment in a line: herbicidal effect in growth medium on model and crop plants and weeds (root growth). Particulars: tested in parallel. In kind it is in vivo.
Substrate in data set [7]: O=C(O)C(=O)C[C@@H](O)[C@H](O)[C@H](O)COP(=O)(O)O
The experiment in a line: enzymatic assay with purified recombinant mature AtDHQS1. Particulars: other: substrate DAHP; mAtDHQS1. In kind it is biochemical, Arabidopsis thaliana. On the procedure:
as §1

Substrate in data set [8]: O=C(O)C(=O)C[C@@H](O)[C@H](O)[C@H](O)COP(=O)(O)O
Kind of data set: enzymatic assay with purified recombinant AtDHQS1 still containing the transit peptide. Particulars: other: substrate DAHP; pAtDHQS1. In kind it is biochemical, Arabidopsis thaliana. On the procedure:
as §1

The mark [9] stands for this setting: 3-days-old seedlings, two independent lines.

`C[C@@H](O)[C@@H](O)[C@@H](O)[C@H](O)C(=O)CO` [7dSh, 7-deoxy-sedoheptulose]: the “effect on the activity of mAtDHQS1” value in data set [1] is recorded as “not inhibited; also recorded: no effect”. For the same molecule, the “root growth of wild type seedlings” value in data set [2] (3-days-old Arabidopsis wild type (Col-0) seedlings, 3 days) is “completely inhibited”. Besides, in data set [2] (setting [9]), the “tolerance of seedlings of AtDHQS2-GFP transgenic lines” value is listed as “no tolerance” and the “tolerance of seedlings of transgenic lines overexpressing AtDHQS1-GFP” value was “partial but not complete tolerance”. Moreover, in data set [3] (RED dye-labelled mAtDHQS1 (50 nM), 250 µM DAHP and 250 µM 7dSh, Fig. 2 C), the “competition with DAHP for binding to mAtDHQS1 (MST)” value is recorded as “no competition; also recorded: not able to displace DAHP”. Moreover, the “binding to mAtDHQS1 (MST)” value in data set [3] (RED dye-labelled mAtDHQS1 (50 nM), 500 µM ligand, Fig. 2 A/B) is reported as “no binding; also recorded: no interaction”. The “effect on the activity of pAtDHQS1” value in data set [4] is recorded as “not inhibited; also recorded: no effect”. Besides, the accumulation of sedoheptulose entry in data set [5] is on record as “up to 60 times higher than in the untreated seedlings”.
In data set [3], `O=C(O)C(=O)C[C@@H](O)[C@H](O)[C@H](O)COP(=O)(O)O` [DAHP, 3-deoxy-D-arabino-heptulosonate-7-phosphate, reference compound] yielded a Kd of 33 µM.
As to `O=C(O)CNCP(=O)(O)O` [glyphosate], the “effective concentrations compared with 7dSh” value in data set [6] is “comparable”.

B1: mAtDHQS1 (Arabidopsis thaliana) (protein)
chain: T1 sequence (Q8VYV7 59-442)
notes: The mature i.e. biologically relevant enzyme (mAtDHQS1) with 381 amino acids; (His)6 (C); made in house; host or cells: E. coli
As for B1, the Km in data set [7] is listed as 8.3 µM.

B2: pAtDHQS1 (Arabidopsis thaliana) (protein)
chain: T1 sequence (Q8VYV7 59-442)
notes: a version that still has the 61 amino acid long transit peptide for plastid import (pAtDHQS1); (His)6 (C); made in house; host or cells: E. coli
B2: the Km in data set [8] worked out at 2.9 µM.

The Kd is a measure of binding affinity in units of concentration. Read a low Kd as tighter binding. What is called Km is the concentration of substrate that gives half-maximal velocity.
